According to US20230399311A1, “POLYMORPHS OF SUBSTITUTED ISOQUINOLINE-BASED RHO KINASE INHIBITORS” (BioAxone BioSciences, Inc., priority 2022, published 2023):
In brackets after ≈: the same amount, converted by molar mass. Several values for one entry are separate records, joined by “and”; a condition that tells them apart may be missing. Identical values can stand only once. Like-named read-outs stand apart in the source and are kept apart here.

How the values were obtained:
[1] = Solubility of Form A in various solvents at 25° C. and 50° C.; format: physicochemical; conditions: thermodynamic from solid
Description: The solubility of Form A of Compound 1 was evaluated at 25° C. and 50° C. in various solvents.

[2] = pKa by iterative titration with 1M sodium hydroxide; format: physicochemical; conditions: free base form; for pKa: Measurements #1-#3
Description: The pKa of NRL-1049 in free base form was measured in triplicate by iterative titration with 1M sodium hydroxide solution. A plot of the pH versus the volume of the titrant was used to calculate the pKa, wherein the pKa was taken as 50% of the inflection point.

`C[C@@H](N)C1CCN(S(=O)(=O)c2cccc3cnccc23)CC1` [NRL-1049 (R), (R)-1-(1-(isoquinolin-5-ylsulfonyl)piperidin-4-yl)ethan-1-amine] gave a solubility ([1]; 1,4-dioxane, 25 °C, organic solvent or mixture, read-out: Solubility at 25° C.) of 1500 µg/mL (≈ 4.7 mM), a solubility ([1]; 1,4-dioxane, 50 °C, organic solvent or mixture, read-out: Solubility at 50° C.) of 11900 µg/mL (≈ 37.3 mM) and a solubility ([1]; 2-methoxyethanol, 25 °C, organic solvent or mixture, read-out: Solubility at 25° C.) of over 50000 µg/mL. For the same compound, the solubility ([1]; 2-methoxyethanol, 50 °C, organic solvent or mixture, read-out: Solubility at 50° C.) was over 50000 µg/mL, the solubility ([1]; acetone, 25 °C, organic solvent or mixture, read-out: Solubility at 25° C.) was 15900 µg/mL (≈ 49.8 mM) and the solubility ([1]; acetone, 50 °C, organic solvent or mixture, read-out: Solubility at 50° C.) was 45300 µg/mL (≈ 142 mM). For the same compound, the solubility ([1]; acetonitrile, 25 °C, organic solvent or mixture, read-out: Solubility at 25° C.) was under 1000 µg/mL, the solubility ([1]; acetonitrile, 50 °C, organic solvent or mixture, read-out: Solubility at 50° C.) was under 1000 µg/mL and the solubility ([1]; benzyl alcohol, 25 °C, organic solvent or mixture, read-out: Solubility at 25° C.) was 156000 µg/mL (≈ 488 mM). The solubility ([1]; chloroform, 25 °C, organic solvent or mixture, read-out: Solubility at 25° C.) was over 50000 µg/mL, the solubility ([1]; chloroform, 50 °C, organic solvent or mixture, read-out: Solubility at 50° C.) was over 50000 µg/mL and the solubility ([1]; dichloromethane, 25 °C, organic solvent or mixture, read-out: Solubility at 25° C.) was under 1000 µg/mL. For the same compound, the solubility ([1]; dichloromethane, 50 °C, organic solvent or mixture, read-out: Solubility at 50° C.) was under 1000 µg/mL, the solubility ([1]; dimethyl sulfoxide, 25 °C, organic solvent or mixture, read-out: Solubility at 25° C.) was over 50000 µg/mL and the solubility ([1]; dimethyl sulfoxide, 50 °C, organic solvent or mixture, read-out: Solubility at 50° C.) was over 50000 µg/mL. For the same compound, the solubility ([1]; dimethylformamide, 25 °C, organic solvent or mixture, read-out: Solubility at 25° C.) was 39300 µg/mL (≈ 123 mM), the solubility ([1]; dimethylformamide, 50 °C, organic solvent or mixture, read-out: Solubility at 50° C.) was over 50000 µg/mL and the solubility ([1]; ethanol, 25 °C, organic solvent or mixture, read-out: Solubility at 25° C.) was 12300 µg/mL (≈ 38.5 mM). For the same compound, the solubility ([1]; ethanol, 50 °C, organic solvent or mixture, read-out: Solubility at 50° C.) was 25300 µg/mL (≈ 79.2 mM), the solubility ([1]; ethyl acetate, 25 °C, organic solvent or mixture, read-out: Solubility at 25° C.) was under 1000 µg/mL and the solubility ([1]; ethyl acetate, 50 °C, organic solvent or mixture, read-out: Solubility at 50° C.) was under 1000 µg/mL. For the same compound, the solubility ([1]; ethyl formate, 25 °C, organic solvent or mixture, read-out: Solubility at 25° C.) was 13700 µg/mL (≈ 42.9 mM), the solubility ([1]; ethyl formate, 50 °C, organic solvent or mixture, read-out: Solubility at 50° C.) was over 50000 µg/mL and the solubility ([1]; iso-butyl acetate, 25 °C, organic solvent or mixture, read-out: Solubility at 25° C.) was under 1000 µg/mL. The solubility ([1]; iso-butyl acetate, 50 °C, organic solvent or mixture, read-out: Solubility at 50° C.) was under 1000 µg/mL, the solubility ([1]; iso-propanol, 25 °C, organic solvent or mixture, read-out: Solubility at 25° C.) was 500 µg/mL (≈ 1.57 mM) and the solubility ([1]; iso-propanol, 50 °C, organic solvent or mixture, read-out: Solubility at 50° C.) was 14700 µg/mL (≈ 46 mM). The solubility ([1]; iso-propyl acetate, 25 °C, organic solvent or mixture, read-out: Solubility at 25° C.) was under 1000 µg/mL, the solubility ([1]; iso-propyl acetate, 50 °C, organic solvent or mixture, read-out: Solubility at 50° C.) was under 1000 µg/mL and the solubility ([1]; medium chain triglyceride, 25 °C, oil or lipid, read-out: Solubility at 25° C.) was 100 µg/mL (≈ 0.313 mM). For the same compound, the solubility ([1]; methanol, 25 °C, organic solvent or mixture, read-out: Solubility at 25° C.) was over 50000 µg/mL, the solubility ([1]; methanol, 50 °C, organic solvent or mixture, read-out: Solubility at 50° C.) was over 50000 µg/mL and the solubility ([1]; methyl ethyl ketone, 25 °C, organic solvent or mixture, read-out: Solubility at 25° C.) was under 1000 µg/mL. The solubility ([1]; methyl ethyl ketone, 50 °C, organic solvent or mixture, read-out: Solubility at 50° C.) was 1500 µg/mL (≈ 4.7 mM), the solubility ([1]; methyl iso-butyl ketone, 25 °C, organic solvent or mixture, read-out: Solubility at 25° C.) was under 1000 µg/mL and the solubility ([1]; methyl iso-butyl ketone, 50 °C, organic solvent or mixture, read-out: Solubility at 50° C.) was under 1000 µg/mL. It also gave a solubility ([1]; n-butyl alcohol, 25 °C, organic solvent or mixture, read-out: Solubility at 25° C.) of 1600 µg/mL (≈ 5.01 mM), a solubility ([1]; n-butyl alcohol, 50 °C, organic solvent or mixture, read-out: Solubility at 50° C.) of 7500 µg/mL (≈ 23.5 mM) and a solubility ([1]; n-propanol, 25 °C, organic solvent or mixture, read-out: Solubility at 25° C.) of 1600 µg/mL (≈ 5.01 mM). For the same compound, the solubility ([1]; n-propanol, 50 °C, organic solvent or mixture, read-out: Solubility at 50° C.) was 23400 µg/mL (≈ 73.3 mM), the solubility ([1]; o-xylene, 25 °C, organic solvent or mixture, read-out: Solubility at 25° C.) was under 1000 µg/mL and the solubility ([1]; o-xylene, 50 °C, organic solvent or mixture, read-out: Solubility at 50° C.) was under 1000 µg/mL. It also gave a solubility ([1]; polyethylene glycol 300, 25 °C, organic solvent or mixture, read-out: Solubility at 25° C.) of 11000 µg/mL (≈ 34.4 mM), a solubility ([1]; propylene glycol, 25 °C, organic solvent or mixture, read-out: Solubility at 25° C.) of 84000 µg/mL (≈ 263 mM) and a solubility ([1]; sesame oil, 25 °C, oil or lipid, read-out: Solubility at 25° C.) of 40 µg/mL (≈ 0.125 mM). The solubility ([1]; tert-butyl methyl ether, 25 °C, organic solvent or mixture, read-out: Solubility at 25° C.) was under 1000 µg/mL, the solubility ([1]; tert-butyl methyl ether, 50 °C, organic solvent or mixture, read-out: Solubility at 50° C.) was under 1000 µg/mL and the solubility ([1]; tetrahydrofuran, 25 °C, organic solvent or mixture, read-out: Solubility at 25° C.) was 1600 µg/mL (≈ 5.01 mM). It also gave a solubility ([1]; tetrahydrofuran, 50 °C, organic solvent or mixture, read-out: Solubility at 50° C.) of 2000 µg/mL (≈ 6.26 mM), a solubility ([1]; toluene, 25 °C, organic solvent or mixture, read-out: Solubility at 25° C.) of under 1000 µg/mL and a solubility ([1]; toluene, 50 °C, organic solvent or mixture, read-out: Solubility at 50° C.) of under 1000 µg/mL. For the same compound, the solubility ([1]; water, 25 °C, water, read-out: Solubility at 25° C.) was over 50000 µg/mL and the solubility ([1]; water, 50 °C, water, read-out: Solubility at 50° C.) was over 50000 µg/mL.
With `CC(N)C1CCN(S(=O)(=O)c2cccc3cnccc23)CC1` (stereo not shown) [NRL-1049] the pKa average ([2]; Sample 1) was 1.8, the pKa ([2]; Sample 1) was 1.73 and 1.81 and 1.83 and the pKa average ([2]; Sample 2) was 2.0. The pKa average ([2]; Sample 3) was 1.9 and the pKa ([2]; Sample 3) was 1.89 and 1.87 and 1.98.
